Measured values reported in patent publication US6342508B1, “N-hydroxy-2-(Alkyl,Aryl or Heteroaryl sulfanyl, sulfinyl or sulfonyl) 3-substituted alkyl, aryl or heteroarylamides as matrix metalloproteinase inhibitors” (American Cyanamid Company, priority 1997, dated 2002).
Like-named read-outs stand apart in the source and are kept apart here.

What was measured:
MMP 1 = molecular target: T1, MMP 1 (Homo sapiens, UniProt P03956); assay: In Vitro Collagenase Assay (human recombinant fibroblast collagenase, fluorogenic peptide substrate); type: biochemical; settings: for IC50: read-out: MMP 1 IC 50
T1 construct: human recombinant fibroblast collagenase (truncated mw=18,828, WAR, Radnor)
T1 sequence (P03956 100-269 limits assumed): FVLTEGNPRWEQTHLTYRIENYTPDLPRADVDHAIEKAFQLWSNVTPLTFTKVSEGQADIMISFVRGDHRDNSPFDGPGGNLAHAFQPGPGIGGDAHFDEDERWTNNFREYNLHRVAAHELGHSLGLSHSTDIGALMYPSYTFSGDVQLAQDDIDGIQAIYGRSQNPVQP
Experimental: The assay is based on the cleavage of a peptide substrate ((Dnp-Pro-Cha-Gly-Cys(Me)-His-Ala-Lys(NMa)-NH2), Peptide International Inc.) by collagenase releasing the fluorescent NMa group which is quantitated on the fluorometer. Dnp quenches the NMa fluorescence in the intact substrate. […] Substrate is dissolved in methanol and stored frozen in 1 mM aliquots. […] For the assay, substrate is dissolved in HCBC buffer to a final concentration of 10 μM and collagenase to a final concentration of 5 nM. Compounds are dissolved in methanol, DMSO, or HCBC. The methanol and DMSO are diluted in HCBC to <1.0%. Compounds are added to the 96 well plate containing enzyme and the reaction is started by the addition of substrate.
The slope of the line is calculated and represents the reaction rate.
The mean (x±sem) of the control rate is calculated and compared for statistical significance (p<0.05) with drug-related rates using Dunnett's multiple comparison test.

MMP 9 = molecular target: T2, MMP 9 (Homo sapiens, UniProt P14780); assay: In Vitro Gelatinase Assay (human neutrophil gelatinase B, thiopeptide substrate/DTNB); type: biochemical
T2 construct: from tissue; host or cells: human neutrophils
Experimental: The assay is based on the cleavage of the thiopeptide substrate ((Ac-Pro-Leu-Gly(2 Mercapto-4 methyl-pentanoyl)-Leu-Gly-OEt), Bachem Bioscience) by the enzyme, gelatinase, releasing the substrate product which reacts colorimetrically with DTNB ((5,5′-dithio-bis(2-nitro-benzoic acid)). The enzyne activity is measured by the rate of the color increase. The thiopeptide substrate is made up fresh as a 20 mM stock in 100% DMSO and the DTNB is dissolved in 100% DMSO as a 100 mM stock and stored in dark at room temperature. Both the substrate and DTNB are diluted together to 1 mM with substrate buffer (50 mM HEPES pH 7.5, 5 mM CaCl2) before use.
The increase in OD405 is plotted and the slope of the line is calculated which represents the reaction rate.
The mean (x±sem) of the control rate is calculated and compared for statistical significance (p<0.05) with drug-treated rates using Dunnett's multiple comparison test.

MMP 13 [1] = molecular target: T3, MMP 13 (Homo sapiens, UniProt P45452); assay: MMP 13 inhibition (standard/manual test); type: biochemical
TACE = molecular target: T4, TACE (Homo sapiens, UniProt P78536); assay: Procedure for Measuring TACE Inhibition (fluorescent peptidyl substrate); type: biochemical; settings: for inhibition at 1 µM: read-out: TACE % inhibition at 1 micromolar
T4 construct: purchased Immunex
Experimental: Using 96-well black microtiter plates, each well recieves a solution composed of 10 μL TACE (Immunex, final concentration 1 μg/mL), 70 μL Tris buffer, pH 7.4 containing 10% glycerol (final concentration 10 mM), and 10 μL of test compound solution in DMSO (final concentration, DMSO concentration <1%) and incubated for 10 minutes at room temperature. The reaction is initiated by addition of a fluorescent peptidyl substrate (final concentration 100 μM) to each well and then shaking on a shaker for 5 sec. The reaction is read (excitation 340 nm, emission 420 nm) for 10 min. and the increase in fluorescence over time is plotted as a linear line. The slope of the line is calculated and represents the reaction rate. […] The mean (x±sem) of the control rate is calculated and compared for statistical significance (p<0.05) with drug-treated rates using Dunnett's multiple comparison test.

MMP 13 [2] = molecular target: T3, MMP 13; assay: MMP 13 inhibition (HTS); type: biochemical

T4 sequence (P78536 215-824): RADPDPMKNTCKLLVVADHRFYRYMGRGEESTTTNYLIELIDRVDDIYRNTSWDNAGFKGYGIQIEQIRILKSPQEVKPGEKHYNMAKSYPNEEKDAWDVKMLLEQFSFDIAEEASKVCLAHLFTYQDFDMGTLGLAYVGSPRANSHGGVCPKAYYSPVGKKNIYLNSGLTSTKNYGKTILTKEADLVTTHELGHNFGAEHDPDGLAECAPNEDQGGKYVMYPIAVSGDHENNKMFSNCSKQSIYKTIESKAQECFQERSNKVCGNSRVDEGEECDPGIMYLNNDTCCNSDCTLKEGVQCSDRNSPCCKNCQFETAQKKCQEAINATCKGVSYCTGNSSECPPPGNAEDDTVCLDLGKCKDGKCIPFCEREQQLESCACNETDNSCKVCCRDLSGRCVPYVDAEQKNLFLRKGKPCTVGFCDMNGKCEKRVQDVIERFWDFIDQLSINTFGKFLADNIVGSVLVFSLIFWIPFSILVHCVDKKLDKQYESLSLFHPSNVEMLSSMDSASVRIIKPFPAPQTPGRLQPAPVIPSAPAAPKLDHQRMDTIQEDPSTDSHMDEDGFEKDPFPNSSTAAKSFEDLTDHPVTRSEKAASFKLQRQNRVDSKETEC
T2 sequence (P14780 94-707): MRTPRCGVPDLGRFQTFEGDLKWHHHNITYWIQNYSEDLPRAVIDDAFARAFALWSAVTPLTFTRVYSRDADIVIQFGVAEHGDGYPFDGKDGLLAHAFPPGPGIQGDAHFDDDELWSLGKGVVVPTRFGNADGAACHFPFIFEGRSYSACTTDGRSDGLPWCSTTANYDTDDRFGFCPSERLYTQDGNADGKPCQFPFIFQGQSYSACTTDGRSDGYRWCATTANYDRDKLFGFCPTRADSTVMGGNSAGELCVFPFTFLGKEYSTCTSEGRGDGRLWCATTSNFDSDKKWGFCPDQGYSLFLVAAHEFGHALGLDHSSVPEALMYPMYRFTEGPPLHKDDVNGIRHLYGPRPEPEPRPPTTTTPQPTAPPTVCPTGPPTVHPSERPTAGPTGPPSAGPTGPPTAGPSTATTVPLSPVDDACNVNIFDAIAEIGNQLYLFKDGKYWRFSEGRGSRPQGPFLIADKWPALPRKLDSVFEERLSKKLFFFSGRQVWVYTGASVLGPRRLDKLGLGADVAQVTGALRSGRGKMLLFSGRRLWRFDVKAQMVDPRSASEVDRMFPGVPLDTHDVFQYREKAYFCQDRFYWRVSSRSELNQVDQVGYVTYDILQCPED

`COc1ccc(S(=O)(=O)C2(C(=O)NO)CCN(Cc3ccc(-c4ccccc4)cc3)CC2)cc1` [Example 88, 1-Biphenyl-4-ylmethyl-4-(4-methoxy-benzenesulfonyl)-piperidine-4-carboxylic acid hydroxamide] showed an IC50 (MMP 1) of 1330 nM and an IC50 (MMP 9; read-out: MMP 9 IC 50) of 12.8 nM.
For `CCCC(Cc1ccc(OCCN2CCOCC2)cc1)(C(=O)NO)S(=O)(=O)c1ccc(OC)cc1` (stereo not shown) [Example 35, 2-(4-Methoxy-benzenesulfonyl)-2-[4-(2-morpholin4yl-oxy)-benzyl]-pentanoic acid hydroxyamide], the IC50 (MMP 13 [1]; read-out: MMP 13 IC 50) was 48.2 nM, the IC50 (MMP 1) was 456 nM and the IC50 (MMP 9; read-out: MMP 9 IC 50) was 234 nM.
`CCN(CC)CCOc1ccc(CC(C)(C(=O)NO)S(=O)(=O)c2ccc(OC)cc2)cc1` (stereo not shown) [Example 21, N-Hydroxy-2-(4-methoxy-benzenesulfonyl)-2-methyl-3-[4-(2-N,N-diethylamino-ethoxy)-phenyl]-propionamide] showed an IC50 (MMP 13 [1]; read-out: MMP 13 IC 50) of 15.3 nM, an inhibition at 1 µM (TACE) of 39% and an IC50 (MMP 1) of 318 nM. It also gave an IC50 (MMP 9; read-out: MMP 9 IC 50) of 13.2 nM.
In the case of `CC(C(=O)O)S(=O)(=O)CCCCCCCCS(=O)(=O)C(C)C(=O)NO` (stereo not shown) [Example 49, 2-[8-(1-carboxy-ethanesfonyl)-octane-1-sulfonyl]-propionic acid hydroxyamide], the “MMP 13 % inhibition at 1 micromolar” value (MMP 13 [1]; 1 micromolar) is reported as 54.6%, the “MMP 1 % inhibition at 1 micromolar” value (MMP 1) is reported as 10.1% and the “MMP 9 % inhibition at 1 micromolar” value (MMP 9) is reported as 23.7%.
In the case of `CCOc1ccc(S(=O)(=O)C(C)(Cc2ccc(OCCN(CC)CC)cc2)C(=O)NO)cc1` (stereo not shown) [Example 25, N-Hydroxy-2-(4-ethoxy-benzenesulfonyl)-2-methyl-3-[4-(2-N,N-diethylamino-ethoxy)-phenyl]-propionamide], the IC50 (MMP 13 [1]; read-out: MMP 13 IC 50) is reported as 8 nM and the IC50 (MMP 9; read-out: MMP 9 IC 50) is reported as 26.7 nM.
In the case of `CC(Cc1ccccc1)(C(=O)NO)S(=O)(=O)c1cccs1` (stereo not shown) [Example 48, 2-Methyl-3-phenyl-2-(thiophene-2-sulfonyl)-propionic acid hydroxamide], the “TACE % inhibition at 1 micromolar” value (TACE) is reported as 51.1%, the “MMP 1 % inhibition at 1 micromolar” value (MMP 1) is reported as 99.1% and the “MMP 9 % inhibition at 1 micromolar” value (MMP 9) is reported as 79.1%.
For `CC(Cc1ccc(OCCN2CCCCC2)cc1)(C(=O)NO)S(=O)(=O)c1cccs1` (stereo not shown) [Example 45, 2-Methyl-3-4-(2-piperdin-1-yl-ethoxy)-phenyl-2-(thiophene-2-sulfonyl)-propionic acid hydroxamide], the “TACE % inhibition at 1 micromolar” value (TACE) was 20.4%, the “MMP 1 % inhibition at 1 micromolar” value (MMP 1) was 49% and the “MMP 9 % inhibition at 1 micromolar” value (MMP 9) was 48.6%.
With `CCCCCCC(Sc1nc(-c2ccccc2)cs1)C(=O)NO` (stereo not shown) [Example 172, 2-(4-Phenyl-thiazole-2-sulfanyl)-octanoic acid hydroxyamide] the “TACE % inhibition at 1 mM” value (TACE) was 29.4% and the “MMP 13 % inhibition at 36 nM (HTS)” value (MMP 13 [2]) was 34%.
In the case of `COc1ccc([S+]([O-])C(C(=O)NO)c2ccccc2)cc1` (stereo not shown) [Example 8, N-Hydroxy-2-(4-methoxy-benzenesulfinyl)-2-phenyl-acetamide], the melting point is reported as 135 °C, the IC50 (MMP 13 [1]; read-out: MMP 13 IC 50) is reported as 308 nM and the IC50 (MMP 9; read-out: MMP 9 IC 50) is reported as 346 nM.
In the case of “N-Hydroxy-3-methyl-2-phenethylsulfinyl-butyramide [Example 117]”, the “TACE % inhibition at 1 mM” value (TACE) is reported as 8.1% and the “MMP 13 % inhibition at 0.2 μM (HTS)” value (MMP 13 [2]) is reported as 7%.
Work on `COc1ccc(CS(=O)(=O)C(C)(Cc2ccccc2)C(=O)NO)cc1` (stereo not shown) [Example 41, N-Hydroxy-2-(4-methoxy-phenylmethanesulfonyl)-2-methyl-3-phenyl propionic acid hydroxamide] yielded a melting point of 58 to 59 °C, an inhibition at 1 µM (TACE) of 15.5% and an IC50 (MMP 1) of 100 nM.
For `O=C(CCC(Sc1ccc(Br)cc1)C(=O)NO)NO` (stereo not shown) [Example 134, 4-Hydroxycarbamoyl-4-(4-bromo-benzenesulfanyl)-butyric acid hydroxyamide], the “TACE % inhibition at 1 mM” value (TACE) was −9.31% and the “MMP 13 % inhibition at 0.2 μM (HTS)” value (MMP 13 [2]) was 25%.
With `O=C(CCC(Sc1ccccc1C(F)(F)F)C(=O)NO)NO` (stereo not shown) [Example 137, 4-Hydroxycarbamoyl-4-(2-trifluoromethyl-benzenesulfanyl)-butyric acid hydroxyamide] the “TACE % inhibition at 1 mM” value (TACE) was 13.35% and the “MMP 13 % inhibition at 0.2 μM (HTS)” value (MMP 13 [2]) was 83%.
For `CC(Cc1ccc(OCCN2CCCCC2)cc1)(C(=O)NO)S(=O)(=O)c1ccc(Br)cc1` (stereo not shown) [Example 50, 2-(4Bromo-benzenesulfonyl)-2-methyl-3-[4-(2-piperdine-1-yl-ethoxy)-phenyl]-propionic acid hydroxanide], the IC50 (MMP 13 [1]; read-out: MMP 13 IC 50) was 10.6 nM, the IC50 (MMP 1) was 51.1 nM and the IC50 (MMP 9; read-out: MMP 9 IC 50) was 58.4 nM.
For `COc1ccc(SC(C)C(=O)NO)cc1` (stereo not shown) [Example 111, N-Hydroxy-2-(4-methoxy-benzenesulfanyl)-propionamide], the “TACE % inhibition at 1 mM” value (TACE) was 40.4% and the “MMP 13 % inhibition at 0.2 μM (HTS)” value (MMP 13 [2]) was 10%.
For `CC(C)CCSC(C)C(=O)NO` (stereo not shown) [Example 112, N-Hydroxy-2-(3-methyl-butane-1-sulfanyl)-propionamide], the “TACE % inhibition at 1 mM” value (TACE) was 33.7% and the “MMP 13 % inhibition at 0.2 μM (HTS)” value (MMP 13 [2]) was 50%.
Compound `COc1ccc(S(=O)(=O)C2(C(=O)NO)CCN(Cc3ccc4ccccc4c3)CC2)cc1` [Example 87, 4-(4methoxy-benzene-sulfonyl)-1-napthalene-2-yl-methylpiperidine-4-carboxylic acid hydroxamide] has a melting point of 168 to 170 °C, an IC50 (MMP 1) of 368 nM and an IC50 (MMP 9; read-out: MMP 9 IC 50) of 5 nM.
In the case of `COc1ccc(S(=O)(=O)C(C)(Cc2ccc(OCCN3CCCCC3)cc2)C(=O)NO)cc1` (stereo not shown) [Example 17, N-Hydroxy-2-(4-methoxy-benzenesulfonyl)-2-methyl-3-[4-(2-piperidin-1-yl-ethoxy)-phenyl]-proponamide], the “TACE % inhibition at 1 micromolar” value (TACE) is reported as 41.00%, the IC50 (MMP 1) is reported as 239 nM and the IC50 (MMP 9; read-out: MMP 9 IC 50) is reported as 8.9 nM.
`CC(=O)Nc1ccc(SC(Cc2ccccc2)C(=O)NO)cc1` (stereo not shown) [Example 128, 2-(4-Acetylamino-benzenesulfanyl)-N-hydroxy-3-phenyl-propionamide] gave an IC50 (MMP 13 [1]; manual, nM) of 255 nM, an IC50 (MMP 9; solid phase compounds table, read-out: MMP 9) of 213 nM and an inhibition at 0.2 µM (MMP 13 [2]; read-out: MMP 13 % inhibition at 0.2 μM (HTS), 0.2 μM) of 91%.
In the case of `CCCCCCC(C(=O)NO)[S+]([O-])c1ccc(NS(=O)(=O)c2ccc(-c3ccccn3)s2)cc1` (stereo not shown) [Example 237, 5-Pyridin-2-yl-thiophene-2-sulfonic acid 4(1-hydroxycarbamoyl-heptylsulfinyl)-hydroxy amide], the “TACE % inhibition at 1 mM” value (TACE) is reported as 38.2% and the “MMP 13 % inhibition at 36 nM (HTS)” value (MMP 13 [2]) is reported as 55%.
In the case of `CCC(SCC(=O)OC)C(=O)NO` (stereo not shown) [Example 119, (1-Hydroxycarbamoyl-propane-1-sulfanyl)-acetic acid methyl ester], the “TACE % inhibition at 1 mM” value (TACE) is reported as 7.8% and the “MMP 13 % inhibition at 0.2 μM (HTS)” value (MMP 13 [2]) is reported as 0%.
In the case of “3-Bromo-2-chloro-thiophene-2-sulfonic acid 4-(1-hydroxycarbamoyl-heptylsulfonyl)-hydroxyamide [Example 239]”, the “TACE % inhibition at 1 mM” value (TACE) is reported as 45.9% and the “MMP 13 % inhibition at 36 nM (HTS)” value (MMP 13 [2]) is reported as 54%.
With `CCCCCCC(C(=O)NO)S(=O)(=O)c1ccc(NS(=O)(=O)c2cccc3nsnc23)cc1` (stereo not shown) [Example 240, Benzo[1,2,5]thiadiazole-4-sulfonic acid 4-(1-hydrxycarbamoyl-heptylsulfonyl)-hydroxyamide] the “TACE % inhibition at 1 mM” value (TACE) was 40.3% and the “MMP 13 % inhibition at 36 nM (HTS)” value (MMP 13 [2]) was 48%.
